Activity calls are given as the source filed them.

The term AC50 denotes the concentration giving half of the maximal activity seen. For orientation: EC50 means the concentration at which the effect is half-maximal. What is called IC50 is the concentration needed to halve the response being measured.

A short description of test [1]: inhibitors of PGC1a acetylation in cells, dose response, cell-based, cherry-picked samples (AID 720514).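 Also: potency may reflect raised or lowered acetylation signal.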 It is filed as functional.
Another test has as its target Kallikrein-7 (Homo sapiens, UniProt P49862). Briefly: Fluorescence Intensity-based biochemical primary high throughput dose response assay to identify activators of kallikrein-7 (K7) zymogen.
Test [2] in a line: inhibitors of clade B AD8 Env fusion, dose response, cell-based, cherry-pick (AID 652062).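 Also: luciferase signal from cell-cell fusion driven by HIV-1 clade B AD8 Env; potency is for inhibitors of fusion seen as a drop in luminescence.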 It is filed as functional.
Test [3] can be described thus: microbe, parasite or virus in culture. It counts as functional. The following applies: Mycobacterium tuberculosis.
Test [4] can be described thus: CEM21 lymphoblast cell cytotoxicity, dose response, cytotoxicity control for viral fusion inhibitor project, CellTiter-Glo luminescence, cherry-picked (AID 652042).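 Also: potency for signal decrease meaning cytotoxicity.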 It is filed as functional, cell-based.
Test [5] in a line: ZM109 Env clade C HIV-1 fusion inhibitors, dose response, HeLa effector, CEM target cells, luciferase, cherry-pick (AID 652058). It is filed as functional, cell-based.
The nature of test [6]: cytotoxicity toward NIH3T3 fibroblasts, dose response, counter-screen, cell-based, ATP luminescence, mouse fibroblasts (AID 2010).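 Also: cells exposed to compound for about 90 hours before reading.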 It is filed as functional. For orientation: Counterscreens check selectivity or assay interference.
A short description of test [7]: inhibitors of intracellular T. cruzi replication, confirmation, NIH3T3 host cells, beta-gal luminescence (AID 2044).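 Also: intracellular parasites grown in NIH/3T3 mouse fibroblasts as host cells; luminescent beta-galactosidase reporter signal from transgenic T. cruzi replicating inside host cells; inhibitors lower the luminescence signal.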 It is filed as functional, cell-based.
Test [8] in a line: inhibitors of HIV Env-driven cell fusion, dose response, cherry-pick (AID 652057). It counts as functional, cell-based.
Test [9] can be described thus: off-target signal loss in HeLa-CEM21 co-culture – HeLa F-luc CTL cells, cherry-picked, counter-screen for HIV-1 Env fusion inhibitor project, dose response (AID 652040).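 Also: potency for signal decrease marking cytotoxic or nonspecific inhibition.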 It is filed as functional, cell-based.
In the next test the test system is INS1. Briefly: beta cell apoptosis inhibitors, cytokine rescue, dose response, luminescence, retest (AID 449756).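 Also: cell death triggered by IL-1 beta plus TNF-alpha plus IFN-gamma mixture; protective hits raise ATP signal compared with cytokine alone wells.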 It is filed as functional, cell-based. Particulars: Rattus norvegicus, INS1.
Test [10] has as its target Beta-lactamase (Salmonella choleraesuis (strain SC-B67), UniProt Q5J463). Briefly: Epi-absorbance-based counterscreen for selective VIM-2 inhibitors: dose response biochemical high throughput screening assay to identify inhibitors of TEM-1 serine-beta-lactamase.
In test [11] the target is T1, Beta-lactamase (Pseudomonas aeruginosa, UniProt Q79MP6). Briefly: IMP-1 metallo-beta-lactamase inhibitors, dose response, selectivity assay for VIM-2 inhibitor project, biochemical, epi-absorbance (AID 1920).
Test [12] deals with T1, Beta-lactamase. Briefly: […] counterscreen for selective VIM-2 inhibitors: dose response biochemical high throughput screening assay to identify inhibitors of IMP-1 metallo-beta-lactamase.
For test [13], the system named is Vero. Briefly: Vero cell toxicity, dose response, cytotoxicity control, plate reader, cherry-pick samples (AID 687020). It is filed as functional, cell-based. The following applies: Chlorocebus sabaeus.
Test [14] in a line: HepG2 cell cytotoxicity, dose response, cytotoxicity control, ATP luminescence, cherry-pick, activator set 2 (AID 1053143). It counts as functional, cell-based.
In test [15] the target is FAD-linked sulfhydryl oxidase ALR (Homo sapiens, UniProt P55789). Put plainly: inhibitors of human ALR sulfhydryl oxidase, dose response, biochemical, H2O2 detection, luminescence, cherry-pick (AID 493248).
Test [16] deals with Photoreceptor-specific nuclear receptor (Homo sapiens, UniProt Q9Y5X4). It is filed as functional, cell-based.
The subject of test [17] is Vero. Briefly: cells. It is filed as functional. Particulars: Chlorocebus sabaeus.

T1 sequence (Q79MP6 whole entry): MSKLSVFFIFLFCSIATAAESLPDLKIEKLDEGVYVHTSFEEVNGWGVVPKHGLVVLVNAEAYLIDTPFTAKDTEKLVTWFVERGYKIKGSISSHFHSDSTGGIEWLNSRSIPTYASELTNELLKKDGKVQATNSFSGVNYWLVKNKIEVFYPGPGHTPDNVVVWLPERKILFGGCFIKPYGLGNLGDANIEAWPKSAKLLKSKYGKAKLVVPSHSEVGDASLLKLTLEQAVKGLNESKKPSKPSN
Sequence of Beta-lactamase (Salmonella choleraesuis (strain SC-B67), UniProt Q5J463) (Q5J463 whole entry): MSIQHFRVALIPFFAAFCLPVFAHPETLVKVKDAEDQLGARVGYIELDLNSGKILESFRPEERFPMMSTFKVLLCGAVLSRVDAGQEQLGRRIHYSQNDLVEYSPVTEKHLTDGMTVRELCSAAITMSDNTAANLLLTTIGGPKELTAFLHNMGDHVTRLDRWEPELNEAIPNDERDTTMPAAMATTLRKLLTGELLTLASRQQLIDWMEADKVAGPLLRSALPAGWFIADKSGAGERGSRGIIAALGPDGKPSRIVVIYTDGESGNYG
Sequence of FAD-linked sulfhydryl oxidase ALR (P55789 whole entry): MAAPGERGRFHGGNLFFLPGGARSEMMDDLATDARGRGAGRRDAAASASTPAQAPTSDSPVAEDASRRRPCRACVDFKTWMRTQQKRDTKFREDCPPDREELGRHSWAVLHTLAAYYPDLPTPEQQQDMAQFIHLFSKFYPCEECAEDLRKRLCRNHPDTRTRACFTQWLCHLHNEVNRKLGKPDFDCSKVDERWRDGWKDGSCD
Sequence of Kallikrein-7 (P49862 whole entry, the tested form may be a part): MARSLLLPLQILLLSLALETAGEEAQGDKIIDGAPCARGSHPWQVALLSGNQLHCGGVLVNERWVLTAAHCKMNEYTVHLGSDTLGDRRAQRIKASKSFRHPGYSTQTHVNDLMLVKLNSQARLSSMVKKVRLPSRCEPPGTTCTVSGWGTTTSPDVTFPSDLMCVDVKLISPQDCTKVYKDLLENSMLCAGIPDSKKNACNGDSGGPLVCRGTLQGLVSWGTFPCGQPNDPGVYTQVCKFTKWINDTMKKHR
Sequence of Photoreceptor-specific nuclear receptor (Q9Y5X4 whole entry): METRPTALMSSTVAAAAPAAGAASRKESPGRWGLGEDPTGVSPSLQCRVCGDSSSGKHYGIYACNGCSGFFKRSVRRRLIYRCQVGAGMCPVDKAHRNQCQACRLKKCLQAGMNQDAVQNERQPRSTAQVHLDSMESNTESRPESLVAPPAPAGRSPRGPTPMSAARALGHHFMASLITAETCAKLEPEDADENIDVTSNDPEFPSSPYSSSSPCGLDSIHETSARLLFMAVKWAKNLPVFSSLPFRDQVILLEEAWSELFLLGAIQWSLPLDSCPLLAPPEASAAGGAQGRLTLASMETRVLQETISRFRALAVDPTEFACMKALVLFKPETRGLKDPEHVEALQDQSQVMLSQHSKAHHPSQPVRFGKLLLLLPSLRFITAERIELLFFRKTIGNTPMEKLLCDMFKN

For `O=C1C=CCCN1C(=O)/C=C/c1cccc(Br)c1`, the AC50 in test [1] is 0.949 µM (active).
With `Cc1nn(-c2ccccc2)c2c1cc1c(=O)n(C)c(=O)nc-1n2-c1ccccc1F`, the EC50 at Kallikrein-7 was 52.9 µM (inactive).
With `S=C(NCc1ccc(Cl)cc1)NC12CC3CC(CC(C3)C1)C2`, the AC50 is 8.99 µM (active) in test [2]; 31.8 µM (active) in test [4]; 6.05 µM (active) in test [5]; 4.88 µM (active) in test [8]; 13.1 µM (active) in [9]; 5.6 µM (active) in the test on INS1. The CC50 in test [3] was 18.8 µM (active). Also, the EC50 in [6] is > 60 µM (not active); in [7], 3.41 µM (active).
`S=c1[nH]nc(Cn2c(-c3ccccn3)nc3ccccc32)n1-c1ccc2c(c1)OCCO2`: the IC50 on Beta-lactamase [10], on Beta-lactamase [11] and on Beta-lactamase [12] was > 59.6 µM (inactive) in each case.
For `COc1ccccc1-n1c(S)nnc1-c1ccco1`, the IC50 at Beta-lactamase [10], at Beta-lactamase [11] and on Beta-lactamase [12] was > 59.6 µM (inactive) each time.
For `O=C(c1ccncc1)N1CCCC(N2CCN(c3cccc(C(F)(F)F)c3)CC2)C1` (stereo unspecified), the AC50 with Vero [13] is 31.8 µM (active).
For the compound `Cc1ccc(Nc2nc(-c3ccc(O)cc3O)cs2)nc1`, the AC50 was 26 µM (active) in test [14] and 288 nM (active) in test [15].
For `CN(C)c1ncnc2c1ccn2C1OC(CO)C(O)C1O` (stereo unspecified), the AC50 in test [2] was 1.89 µM (active); in test [4], 1.39 µM (active); in test [5], 3.41 µM (active); in test [8] it was 4.51 µM (active); in [9], 1.9 µM (active). For the same compound, the IC50 in test [16] was 1.45 µM (active). In addition, in the test with Vero [17], the CC50 is > 25 µM (active).
On to `O=C(Nc1ccc(C(=O)OC2CCCCC2)cc1)c1ccncc1`, for which the results for the AC50 in [2], in test [4] and in [9] were 13.8 µM (active), 64.2 µM (active) and > 70 µM (inactive), respectively.
Turning to `O=C(NC1CCCCCCC1O)c1ccccc1` (stereo unspecified), the AC50 in [1] was 35.4 µM (active).
As to `O=C(c1ccc2c3n(nc2c1)-c1ccc(Cl)cc1CO3)N1CCCCC1`, the half-maximal activity concentration (AC50) in test [14] is 26 µM (active).
Consider `COCCNC(=O)c1cc2cc3ccc(OC)cc3nc2o1`, for which the AC50 in the test on Vero [13] is 27.7 µM (active).
Regarding `CCn1c(-c2nn(-c3ccccc3)ccc2=O)n[nH]c1=S`, the IC50 on Beta-lactamase [10], at Beta-lactamase [11] and on Beta-lactamase [12] was > 59.6 µM (inactive) in each case.

(Values after ChEMBL document CHEMBL1201862, “PubChem BioAssay data set” (2004).)
